Results: US7714106B2, “Neuropeptides and their use for pest control” (University of Florida Research Foundation, Inc., priority 1999, dated 2010)
No end group written: not given here.

These substances were tested on trypsin biosynthesis in the midgut of female Aedes aegypti (assay: Trypsin biosynthesis in blood-fed female mosquitoes injected with peptide (whole mosquitos)). Conditions: whole blood-fed females, injected 0.25 μl, 10^−6 M peptide, midguts assayed 30 hours later.
Type: in vivo
Description: To find out if NPF I and II affect trypsin biosynthesis in the midgut of female Aedes aegypti, […] were removed and assayed for trypsin biosynthesis (Borovsky el al., 1990 “Mosquito Oostatic Factor: A Novel Decapeptide Modulating Trypsin-Like Enzyme Biosynthesis in the Midgut” FASEB J. 4:3015-3020; Borovsky et al. 1993 “Mass Spectrometry and Characterization of Aedes aegypti Trypsin Modulating Oostatic Factor (TMOF) and its Analog” Insect Biochem. Molec. Biol. 23:703-712). Each experiment was repeated 3 times (5 females per group) and the results are expressed as % inhibition of trypsin biosynthesis±S.E.M. (FIG. 1).

Substance	% inhibition of trypsin biosynthesis
Ala-Pro-Ser-Leu-Arg-Leu-Arg-Phe-amide (APSLRLRF-NH2) [NPF II, amidated neuropeptide NPF II, native to the Colorado potato beetle]	35%

What follows are substances tested on first instar Aedes aegypti larvae (assay: Effect of NPF polypeptides on Aedes aegypti larvae (ingestion, mortality)). Conditions: microtiter plate, peptide 2 mg/ml to 0.04 mg/ml with Brewer's yeast, mortality at 24 hour intervals for 3 to 7 days, read-out: LC50 (mM) ± SEM.
Type: in vivo
Description: NPF polypeptides sharing sequence homology with NPF I and NPF II of the Colorado potato beetle (Leptinotarsa decemlineata) (Spittaels, et al. Insect Biochem. Mol. Biol., 26 (4):375-382, 1996) have been identified in the American cockroach (Periplaneta americana) (Veenstra and Lambrou, Biochem. Biophys. Res. Commun., 213 (2):519-524, 1995), mosquito (Aedes aegypti) (Stanek et al., Display Presentation, Entomological Society of America Annual Meeting, Montreal, Canada, Dec. 3-6, 2000), and fruit fly (Drosophila melanogaster), and their pesticidal activity was confirmed. Synthesized polypeptides corresponding to the native polypeptides of Colorado potato beetle (SEQ ID NO. 1), mosquito (SEQ ID NOs. 5 and 7), American cockroach (SEQ ID NOs. 9 and 11), and fruit fly (SEQ ID NOs. 13 and 15) were provided to first instar Aedes aegypti larvae for ingestion. Non-amidated versions of SEQ ID NOs. 5, 7, 9, 11, 13, and 15 (SEQ ID NOs. 6, 8, 10, 12, 14, and 16, respectively), as well as other functional equivalents (SEQ ID NOs. 17-24), were also provided for ingestion.
First instar Aedes aegypti larvae were assayed in a microtiter plate in 188 μl solution containing 160 μl of water, 10 μl of 2% Brewer's yeast, and NPF polypeptides of the subject invention at concentrations of 2 mg/ml to 0.04 mg/ml (Table 2). Mortality was determined at 24 hour intervals for 3 to 7 days. Controls were run with yeast solution lacking the NPF polypeptide.

Substance	LC50
ARGPQLRLRF-NH2 [SEQ ID NO. 1, Ala-Arg-Gly-Pro-Gln-Leu-Arg-Leu-Arg-Phe-amide]	0.65 ± 0.04 mM
ADRSPSLRLRF-NH2 [SEQ ID NO. 11, Ala-Asp-Arg-Ser-Pro-Ser-Leu-Arg-Leu-Arg-Phe-amide]	0.65 ± 0.03 mM
PIRSPSLRLRF-NH2 [SEQ ID NO. 13, Pro-Ile-Arg-Ser-Pro-Ser-Leu-Arg-Leu-Arg-Phe-amide]	0.589 ± 0.04 mM
RSPSLRLRF-NH2 [SEQ ID NO. 17, Arg-Ser-Pro-Ser-Leu-Arg-Leu-Arg-Phe-amide]	0.82 ± 0.07 mM
APQLRLRF-NH2 [SEQ ID NO. 7, Ala-Pro-Gln-Leu-Arg-Leu-Arg-Phe-amide]	0.8 ± 0.06 mM
AQRSPSLRLRF-NH2 [SEQ ID NO. 15, Ala-Gln-Arg-Ser-Pro-Ser-Leu-Arg-Leu-Arg-Phe-amide]	1.03 ± 0.1 mM
LRLRF-NH2 [SEQ ID NO. 21, Leu-Arg-Leu-Arg-Phe-amide]	> 2.8 mM
RPPTRFRF-NH2 [SEQ ID NO. 5, Arg-Pro-Pro-Thr-Arg-Phe-Arg-Phe-amide]	0.61 ± 0.018 mM
ANRSPSLRLRF-NH2 [SEQ ID NO. 9, Ala-Asn-Arg-Ser-Pro-Ser-Leu-Arg-Leu-Arg-Phe-amide]	0.135 ± 0.06 mM
PSLRLRF-NH2 [SEQ ID NO. 19, Pro-Ser-Leu-Arg-Leu-Arg-Phe-amide]	> 2.25 mM
